Reference: patent US20210353749A1, “GUANABENZ AS AN ADJUVANT FOR IMMUNOTHERAPY” (UNIVERSITÉ CATHOLIQUE DE LOUVAIN, priority 2018, published 2021)

How the values were obtained:
[1] = tested on: Mouse TCRP1A CD8+ T cells; assay: CD107 cytotoxicity assay (degranulation assay), mouse T cells; type: cell-based; conditions: 16 hours
Experimental: Mouse TCRP1A CD8^+ T cells: P1A-specific (TCRP1A) CD8^+ T cells were isolated from spleens and lymph nodes of TCRP1A mice using anti-mouse CD8a (Ly-2) MicroBeads (Miltenyi Biotec).
CD107 cytotoxicity assay (Degranulation assay): TCRP1A CD8^+ T cells were plated at 50,000 cells per well in a 96 U plate with different concentrations of guanabenz and incubated at 37° C. overnight prior to their use in the assay on the next day. On the day of the assay, the culture supernatant was removed from the cells and the cells were washed once with complete medium to remove the drug. The target cells L1210-P1A-B7.1 were added to the wells at a ratio of 1:1. Control wells containing either only T cells or target cells were also included for each plate. CD107a-APC was added to each well at the same time as addition of the target cells. The plate was then incubated at 37° C. for 90 minutes. At the end of the incubation period the cells were harvested and washed once with PBS. They were stained with anti-mouse CD8-Bv421 antibody for 15 minutes. The cells were then washed and resuspended in PBS and analyzed using FACS Fortessa flow cytometer. Human CD8^+ T cell degranulation was evaluated in a similar way. To induce CD8^+ T cell degranulation, T2 cells loaded with synthetic WT1126-134 peptide (10^6 T2 cells were incubated for 1 hour in 200 μL Optimem medium with 100 μmol/L synthetic peptide at 37° C.) were used as target cells.
(§1) T cells were incubated with guanabenz (10, 20, or 40 μM) for 16 h to 24 h as indicated. Mice received a daily intra-peritoneal injection of guanabenz (5 mg/kg) or vehicle (PBS) from the day of randomization (and the day of ACT when applicable) until the day of sacrifice.
CD107 cytotoxicity assay (Degranulation assay): the assay was carried out as described hereinabove (see Example 1) with different 20 μM guanabenz or different concentrations of alprenolol or sunitinib, as indicated.
T cells were incubated with 20 μM guanabenz for 16 h as indicated.
T cells were incubated with alprenolol (5 or 20 μM) for 16 h as indicated. […]

[2] = tested on: T429.11 transplanted tumor; assay: TiRP-derived T429.11 transplanted melanoma model; type: in vivo, mouse
Experimental: TiRP-derived T429.11 transplanted melanoma model: T429.11 clone was derived from an induced Amela TiRP tumor referred to as T429. It was cloned from the T429 induced melanoma primary tumor line. Two million of T429.11 tumor cells were injected subcutaneously into recipient mice for tumor establishment (Zhu et al, Nat Commun 2017, 10; 8(1):1404).
as §1
The T429.11 transplanted melanoma model was previously shown not to respond to anti-PD-1 and anti-CTLA4 therapy (Zhu et al., Nature communications. Nov. 10 2017; 8(1):1404). T429.11 transplanted tumor bearing mice received daily injections of guanabenz (5 mg/kg, i.p.) or vehicle (PBS, i.p.) from the day when the tumor size was around 1000 mm^3 (day 1) until the day of sacrifice (day 6). […] As shown on FIG. 2B, the decreased tumor growth was accompanied with an increased tumor infiltration of CD8^+ T cells.

[3] = tested on: P1A-antigen specific CD8+ T cells; assay: Immunization with irradiated L1210-P1A-B7.1 tumor cells; type: in vivo, DBA/2 mice; conditions: 100 μg (5 mg/kg) guanabenz with vaccine, vs negative control and immunization alone
Experimental: Immunization with irradiated L1210-P1A-B7.1 tumor cells: DBA/2 mice received a vaccine consisting of 1 million irradiated L1210-P1A-B7.1 cells expressing the P1A antigen either alone or with 100 μg (5 mg/kg) guanabenz. When administered, guanabenz was given 1 hour before the immunization and daily after the immunization.
Tetramer staining: one week after the immunization, the spleen of each mouse was collected. Isolated splenocytes from the immunized mice were cultured and restimulated with L1210-P1A-B7.1 cells at a ratio of 1:1. Four days after restimulation, P1A-antigen specific CD8^+ T cells were stained with PE-conjugated P1A tetramer and APC-conjugated anti-CD8 antibody.
Interferon gamma secretion: one week after the immunization, the spleen of each mouse was collected. Splenocytes from the immunized mice were restimulated with L1210-P1A-B7.1 cells at a ratio of 1:1. Four days after restimulation, the splenocytes were collected and plated at 50,000 cells per well in 96 U plate. L1210-P1A-B7.1 cells were added to each well as target cells at a ratio of 1:1. The plate was then incubated at 37° C. overnight. At the end of the incubation, the supernatant from the cells were collected and the amount of secreted IFNγ was measured by ELISA according to the manufacturer's instruction (R&D). […]

B16F10 melanoma tumors = assay: B16F10 transplanted melanoma model; type: in vivo, mouse; conditions: guanabenz alone, 2.5 mg/kg i.p. daily from 7 days after inoculation, vs PBS and isotype; FIG. 9
Experimental: Gender and age matched CD57BL/6 wild-type mice were used in the B16F10 transplanted melanoma model.
Gender-matched, 7-9 weeks old CD57BL/6 wild-type mice were subcutaneously injected with 1 million of B16F10 tumor cells. Mice were randomized based on the tumor size one week after the injection of tumor cells. 7 days after tumor inoculation, daily injections of guanabenz (2.5 mg/kg, i.p.) or vehicle (PBS, i.p.) were administered to the mice. Mice then received 4 injections (intraperitoneally also referred to as i.p.) of a dose of 200 μg/mouse anti-PD-1 antibody (BioXcell, clone RMP1-14) or RatIgG2a isotype (clone 2A3, Bio-X-Cell) at 3-day intervals starting 1 day after guanabenz or vehicle administration.

NC(N)=N/N=C/c1c(Cl)cccc1Cl [guanabenz, 2-[(E)-(2,6-dichlorophenyl)methylideneamino]guanidine]
T cell degranulation (FACS detection of CD107a) ([1]; guanabenz 20 μM, vs control, FIG. 12A): did significantly increase
T cell degranulation (FACS detection of CD107a) ([1]; guanabenz 10, 20 or 40 μM, co-culture with L1210-P1A-B7.1 target cells, FIG. 1A): increased
tumor growth ([2]; 5 mg/kg i.p. daily from tumor size around 1000 mm^3 (day 1) to day 6, vs vehicle, FIG. 2A): inhibited tumor growth
tumor infiltration of CD8+ T cells (FACS) ([2]; 5 mg/kg i.p. daily, day of sacrifice (day 6), vs vehicle, FIG. 2B): increased
splenocyte IFNγ secretion (ELISA) ([3]; activation with L1210-P1A-B7.1 cells, FIG. 7B): significant increase
percentage of P1A-antigen specific CD8+ T cells among total CD8+ T cells after restimulation with the P1A-antigen ([3]; splenocytes one week after immunization, FIG. 7A): significant increase
growth of B16F10 melanoma tumors (B16F10 melanoma tumors): did significantly reduce
